# In patent publication US10494397B2, “Rebaudioside analogs” (PepsiCo, Inc., priority 2016, dated 2019):
# Tests used:
# Format in all cases: in vivo, human
# Tasters [1] = assay: Sensory evaluation of test material as a sweetener (taster panel, scale of 1 to 10); design: key: not observed or only minimally observed (−); highly observed (+++); conditions: for Sweet Intensity: averaged taster scores, scale 1 to 10 with Reb A 400 ppm = 5 and sucrose 6.5% = 10, noseclips, blinded; for Bitterness: taster comments and scores converted into symbols; for Sweet Quality: based upon temporal profile (sweet onset, linger) and attributes such as syrupy, round, clean
# Text: Sample preparation protocol for testing material as a sweetener: Tasters wore noseclips and were blinded to the identity of the test material. Tasters sampled 400 ppm Rebaudioside A and 6.5 Brix sucrose prior to the test material. Reb A 400 ppm was assigned a 5 on the scale of 1 to 10 as shown in FIG. 8 and sucrose (6.5%) was assigned a 10 on the same scale. Tasters were asked to rinse their mouths 5 times with water between tasting each sample. Tasters were then given the test article and asked to rank the test article for sweetness on the noted scale. Tasters were also asked to provide comments about bitterness, linger, flavors, and any other perceptions.
# Numerical scores from all tasters were averaged and, taken together with comments regarding sweet quality, bitterness and off-tastes, converted into the symbols “−,” “+,” “++,” and “+++” to indicate whether a given characteristic was not observed or only minimally observed (−) or highly observed (+++). For example, a sample having a “−” in both sweet intensity and bitterness should be understood as a sample having minimal or no sweetness and minimal or no bitter flavor. By contrast, a sample having a “+++” in both sweet intensity and bitterness should be understood as a sample having highly observed sweet intensity and bitterness.
# Preparation of Reb A in this experiment: Prepare 400 ppm Reb A in water (pH=7): 40 mg of Rebaudioside A was dissolved with stirring in 100 ml of water at room temperature.
# Preparation of Sucrose in this experiment: Prepare 6.5% Sucrose in water (pH=7): weight 6.5 gr of Sucrose and dissolve it in 93.5 gr water (total 100 gr)
# • Sweet quality was based upon a temporal profile (sweet onset, linger) and attributes such as syrupy, round, clean.
# Tasters [2] = assay: Sweetness enhancement, Forced Choice Test; design: key: not observed or only minimally observed (−); highly observed (+++); conditions: sweetener (4 Brix sucrose, 4 Brix HFCS or 200 ppm Rebaudioside A) with vs without test compound at a level below 1.5% SEV
# Method: Sample preparation protocol: For testing the material as a sweet/flavor modifying ingredient, two samples were prepared: a 4° Brix high-fructose corn syrup (HFCS) control solution and a 4° Brix HFCS solution with a known concentration of test ingredient.
# Sample Preparation: 4° Brix HFCS control solution was prepared by adding 50.89 grams of 78.60° Brix HFCS to 1000 g phosphoric acid base which was prepared by adding phosphoric acid dropwise into 1 L of Aquafina Water until pH 3.1 was obtained. pH was measured using a METTLER TOLEDO pH meter.
# In the case of a different Brix of HFCS starting syrup, the following formula can be used for the amount of HFCS required to make HFCS control solution. 4° Brix/100*1000 mL/(78.5° Brix/100)=50.96
# […] some low soluble compounds, Branson 2800 Ultra Sonic Bath was used to dissolve the material. If any cloudiness persisted, the sample solution was passed through a paper filter. Solubility was confirmed by shining a laser pointer through the solution. If no diffraction was observed then it was assumed that the material was soluble
# 12-16 tasters were presented with these two(2) numbered samples: one contained a sweetener such as 4Brix sucrose, 4 Brix high-fructose corn syrup or 200 ppm Rebaudioside A in phosphate buffer. […]
# [3] = tested on: Trained Sensory panelists; assay: Sucrose Equivalence Value, paired comparison with 1.5% sucrose; conditions: 25 ppm in aqueous phosphoric acid (pH 3.1), room temperature; p<0.0001
# Text: (§1) Trained Sensory panelists (n=25, 3 evaluations each) evaluated Reb B Galactoside in aqueous phosphoric acid (pH 3.1) at room temperature. Rebaudioside B galactoside is not currently approved for use in food or beverages in the United States. Therefore, every person who tasted the samples signed an informed consent form provided by PepsiCo Scientific Affairs before tasting samples. Participation in the tests was completely voluntary. Panelists who chose to participate could choose to stop participation at any time. In order for a test ingredient to be considered an enhancer, it must not be considered a sweetener.
# [4] = tested on: Trained Sensory panelists; assay: Sweet enhancement ranking test (4 samples ranked from least sweet to most sweet)
# Text: as §1, with “Panelists were asked” for “In order for a test ingredient”, “rank 4 samples from least sweet to most sweet, with 1=least sweet and 4=most sweet As shown in FIGS. 1-3, Enhancement of Reb A, high-fructose corn syrup and sucrose were observed.” for “be considered an enhancer, it must not be considered a sweetener.”
structure (smiles),measurement,setting,value
"C=C1C[C@@]23CC[C@H]4[C@@](C)(CCC[C@@]4(C)C(=O)NCC(=O)O)[C@@H]2CC[C@]1(O[C@@H]1O[C@H](CO)[C@@H](O)[C@H](O[C@@H]2O[C@H](CO)[C@@H](O)[C@H](O)[C@H]2O)[C@H]1O[C@@H]1O[C@H](CO)[C@@H](O)[C@H](O)[C@H]1O)C3 [Compound 5A2, Rebaudioside B-Glycine]",Sweet Intensity,Tasters [1],+++
same,Enhancement,Tasters [2],+++
"C=C1C[C@@]23CC[C@H]4[C@@](C)(CCC[C@@]4(C)C(=O)O[C@@H]4OC[C@@H](O)[C@H](O)[C@H]4O)[C@@H]2CC[C@]1(O[C@@H]1O[C@H](CO)[C@@H](O)[C@H](O[C@@H]2O[C@H](CO)[C@@H](O)[C@H](O)[C@H]2O)[C@H]1O[C@@H]1O[C@H](CO)[C@@H](O)[C@H](O)[C@H]1O)C3 [Compound 7C, Rebaudioside B Xyloside]",Sweet Intensity,Tasters [1],+++
"C=C1C[C@@]23CC[C@H]4[C@@](C)(CCC[C@@]4(C)C(=O)O[C@@H]4O[C@H](CO)[C@H](O)[C@H](O)[C@H]4O)[C@@H]2CC[C@]1(O[C@@H]1O[C@H](CO)[C@@H](O)[C@H](O[C@@H]2O[C@H](CO)[C@@H](O)[C@H](O)[C@H]2O)[C@H]1O[C@@H]1O[C@H](CO)[C@@H](O)[C@H](O)[C@H]1O)C3 [Compound 7D, Rebaudioside B Galactoside]",Sucrose Equivalence Value (sweetness compared with 1.5% sucrose),[3],< 1.5 % sucrose
same,Sweet Intensity,Tasters [1],+++
same,Bitterness,Tasters [1],−
same,Enhancement of sweetness of High-Fructose Corn Syrup (HFCS),"[4]; 25 ppm added to HFCS, FIG. 2",enhances the sweetness
same,Enhancement of sweetness of Rebaudioside A,"[4]; 25 ppm added to Rebaudioside A, FIG. 1",enhances the sweetness
same,Enhancement of sweetness of sucrose,"[4]; 25 ppm added to sucrose, FIG. 3",enhances the sweetness
"C=C1C[C@@]23CC[C@H]4[C@@](C)(CCC[C@@]4(C)C(=O)O[C@@H]4OC[C@@H](O)[C@H](O)[C@H]4O)[C@@H]2CC[C@]1(O[C@@H]1O[C@H](CO)[C@@H](O)[C@H](O[C@@H]2O[C@H](CO)[C@@H](O)[C@H](O)[C@H]2O)[C@H]1O[C@@H]1O[C@@H](C)[C@H](O)[C@@H](O)[C@H]1O)C3 [Compound 7E, Rebaudioside C Xyloside]",Sweet Intensity,Tasters [1],−
same,Sweet Quality,Tasters [1],−
same,Bitterness,Tasters [1],−
"C=C1C[C@@]23CC[C@H]4[C@@](C)(CCC[C@@]4(C)C(=O)O[C@@H]4O[C@H](CO)[C@H](O)[C@H](O)[C@H]4O)[C@@H]2CC[C@]1(O[C@@H]1O[C@H](CO)[C@@H](O)[C@H](O[C@@H]2O[C@H](CO)[C@@H](O)[C@H](O)[C@H]2O)[C@H]1O[C@@H]1O[C@@H](C)[C@H](O)[C@@H](O)[C@H]1O)C3 [Compound 7F, Rebaudioside C Galactoside]",Sweet Intensity,Tasters [1],−
same,Sweet Quality,Tasters [1],−
same,Bitterness,Tasters [1],−
"C=C1C[C@@]23CC[C@H]4[C@@](C)(CCC[C@@]4(C)C(=O)O[C@@H]4O[C@H](CO)[C@@H](O)[C@H](O)[C@H]4O[C@@H]4O[C@H](CO)[C@@H](O)[C@H](O)[C@H]4O)[C@@H]2CC[C@]1(O[C@@H]1O[C@H](CO)[C@@H](O)[C@H](O[C@@H]2O[C@H](CO)[C@@H](O)[C@H](O)[C@H]2O)[C@H]1O[C@@H]1O[C@@H](C)[C@H](O)[C@@H](O)[C@H]1O)C3 [Compound 7G, Rebaudioside K]",Sweet Intensity,Tasters [1],−
same,Sweet Quality,Tasters [1],−
same,Bitterness,Tasters [1],−
same,Enhancement,Tasters [2],−
C=C1C[C@@]23CC[C@H]4[C@@](C)(CCC[C@@]4(C)C(=O)O[C@@H]4O[C@H](CO)[C@@H](O)[C@H](O)[C@H]4O)[C@@H]2CC[C@]1(O[C@@H]1O[C@H](CO)[C@@H](O)[C@H](O[C@@H]2O[C@H](CO)[C@@H](O)[C@H](O)[C@H]2O)[C@H]1O[C@@H]1O[C@H](CO)[C@@H](O)[C@H](O)[C@H]1O)C3 [Rebaudioside A],Sweet Intensity,Tasters [1],+++
"OC[C@H]1O[C@@](CO)(O[C@H]2O[C@H](CO)[C@@H](O)[C@H](O)[C@H]2O)[C@@H](O)[C@@H]1O [Sucrose, reference compound]",Sweet Quality,Tasters [1],+++
same,Bitterness,Tasters [1],−
